Tested on: IL15 signaling pathway
Test: Phospho-flow cytometry assay of IL15 expression and signaling (pSTAT5, pS6)
Assay type: cell-based, human
Details: regulated mbIL15 TILs, ACZ 0.1-100, 18 hours
Method: Pre-REP TILs were prepared similarly to the methods of Example 1-3 and 9, and unengineered and mbIL15 TIL generated accordingly as described in Examples 1-3 and 9. Engagement of the IL15 signaling pathway results in phosphorylation of signal transducers downstream, including the transcription factor protein STATS and ribosomal protein S6. […] Next, the regulated mbIL15 TILs were regulated for 18 hours in the presence of a range of concentrations of ACZ including 0.1, 1, 2.5, 5, 10, 25, 100 as well as vehicle control. The regulated mbIL15 TILs were then collected for staining and FACS analysis.
Briefly, cells were stained using antibodies for CD3, CD4, CD8, IL15 and a Live/Dead marker. Then cells were fixed in 2% formaldehyde (BD Cytofix) and permeabilized using a methanol-based buffer (BD Phospho Perm III Buffer) before staining with antibodies specific for phosphorylated STATS (Biolegend) and S6 (Cell Signaling Technology). Cells were acquired on the BD Symphony and analyzed using FlowJo software.
In order to compare different strategies for IL15 expression, TILs were utilized that constitutively express mbIL15 and regulated mbIL15 TILs. Cryopreserved unengineered TILs, constitutive mbIL15 TILs, and regulated mbIL15 TILs, from three human donors were thawed and then rested in ACZ-free media for 24 hours. […] Cells were acquired on the BD Fortessa and analyzed using FlowJo software.

CC(=O)Nc1nnc(S(N)(=O)=O)s1 [ACZ, acetazolamide]
staining intensity of pSTAT5 and pS6: increased with higher concentrations of ACZ
